{
  "source": "patent US20060134729A1",
  "about": "“Process for the universal detection of microorganisms and reaction environment permitting the implementation of the process” (HEMOSYSTEM, a corporation of France, priority 2002, published 2006)",
  "key": {"Escherichia coli [1]": {"tested_on": "Escherichia coli", "assay": "PicoGreen DNA marking with association nisine/EDTA, cytometry in solid phase", "format": "cell-based", "experimental": "(§1) Prepare a solution of PicoGreen at 1/2000 (molecular probe) in PBS buffer (saline phosphate buffer, pH 7.4).\nNisine 10 μg/ml: 0.02 g nisine (starting material at 2.5% weight/weight) QSP 50 ml distilled water. • EDTA 20 mM: 0.372 g disodic EDTA, QSP 50 ml of distilled water, • Prepare a range of EDTA with 0.25; 2.5; 12.5 and 18.75 ml of EDTA 20 mM (concentration range 0.1; 1; 5 and 7.5 mM), • Add 50, 250, 500 μl or 1 ml nisine 10 μg/ml (concentration range […]; 0.05; 0.1 and […]), • QSP 50 ml of distilled water. Suspension of Bacteria Prepared in PBS • Escherichia coli (CIP 105901)\n(§2) Adjust the preparations to obtain a suspension with 10^3 bacteria/ml.\n• 1.2 ml of marking solution • +3 ml bacterial suspension • Incubation 15 minutes at 22° C. • +7 ml of solution of nisine or nisine/EDTA • Filtration on char filter 0.4 μm porosity. III Analysis and Results\nAfter filtration, the filter is analyzed by cytometry in solid phase and the results expressed as the number of bacteria detected in cytometry in solid phase and as a percentage of bacteria detected relative to the method of enzymatic detection."}, "[2]": {"tested_on": "Staphylococcus epidermidis", "assay": "PicoGreen DNA marking with nisine alone, cytometry in solid phase", "format": "cell-based", "conditions": "nisine solutions 2, 10, 50 μg/ml, bacteria in PBS", "experimental": "The use of nisine solely as a permeabilizing agent for facilitating penetration of the marking agent.\nPrepare a series of dilutions of nisine (starting material at 2.5% weight/weight) in distilled water: • 0.1 g nisine in 50 ml distilled water=solution 50 μg/ml, • 0.02 g of nisine in 50 ml distilled water=solution 10 μg/ml, • 0.004 g of nisine in 50 ml distilled water=solution 2 μg/ml. Suspension of Bacteria Prepared in PBS • Escherichia coli (CIP 105901) • Staphylococcus epidermidis (68.21)\nAdjust the preparations in order to obtain a suspension with 10^4 bacteria/ml."}, "[3]": {"tested_on": "Escherichia coli, Serratia marcescens, Staphylococcus epidermidis", "assay": "Optimization of nisine/EDTA concentrations, entirety of bacteria tested", "format": "cell-based", "experimental": "as §1\n(§3) […] nisine (starting material at 2.5% weight/weight) in 50 ml distilled water or 10 μg/ml,\n(§4) Nisine 0.05 μg/ml/EDTA 7.5 mM: 250 μl nisine 10 μg/ml +0.140 g disodic EDTA, QSP 50 mL distilled water,\n(§5) Nisine 0.1 μg/ml/EDTA 7.5 mM: […] nisine 10 μg/ml +0.140 g disodic EDTA, QSP 50 mL distilled water,\n(§6) Nisine 0.5 μg/ml/EDTA 7.5 mM: 2.5 ml nisine 10 μg/ml+0.140 g disodic EDTA, QSP 50 mL water.\n(§7) • Escherichia coli (CIP 105901) • Staphylococcus epidermidis (CIP 68.21) • Serratia marcescens (CIP 103716)\nas §2\n(§8) • 1.2 mL marking solution • +3 mL bacterial suspension • Incubation 15 minutes at 22° C. • +7 ml solution of nisine/EDTA at different concentrations • Filtration on char filter 0.4 μm porosity. III Analysis and Results\n(§9) After filtration, the filter is analyzed by cytometry in solid phase and the results expressed as the number of bacteria detected in cytometry in solid phase."}, "Escherichia coli [4]": {"tested_on": "Escherichia coli", "assay": "Optimization of nisine/EDTA concentrations, cytometry in solid phase", "format": "cell-based", "conditions": "EDTA fixed at 7.5 mM", "experimental": "as §1, §3, §4, §5, §6, §7, §2, §8, §9"}, "[5]": {"tested_on": "Staphylococcus epidermidis", "assay": "Marking with nisine/EDTA/N octyl glucopyranoside", "format": "cell-based", "conditions": "NOG 0.25% and 0.5% with nisine 0.2 μg/ml, EDTA 7.5 mM", "experimental": "(§10) 100 μg/ml: […] (starting material at 2.5% weight/weight) QSP 50 ml distilled water. • EDTA 100 mM: […] disodic EDTA, QSP 50 ml distilled water, • N octyl glucopyranoside 5%: 2.5 g in 50 ml distilled water • 20, 10, 5 or 2.5 ml NOG at 5% • +3.75 ml EDTA 100 mM • +0.1 ml […] 100 μg/ml • QSP 50 ml distilled water • This solution is at pH 4.8."}, "Pseudomonas aeruginosa [6]": {"tested_on": "Pseudomonas aeruginosa", "assay": "Marking with nisine/EDTA/N octyl glucopyranoside", "format": "cell-based", "conditions": "NOG 0.25% and 0.5% with nisine 0.2 μg/ml, EDTA 7.5 mM", "experimental": "as §10"}, "[7]": {"tested_on": "Escherichia coli, Pseudomonas aeruginosa and Serratia marcescens", "assay": "Marking in the presence of chlorohexidine alone, Gram- strains", "format": "cell-based", "conditions": "tested range 0.01%, 0.005%, 0.001%", "experimental": "(§11) Test implementing chlorohexidine only as permeabilizing agent for favoring the penetration of the bacterial marking agent. […] The counting on a Petri dish at 48 hours takes place with the reference method. The results of this experiment with a composition of the reaction environment comprising chlorohexidine as cellular penetration reactant to improve the marking of Escherichia coli, Pseudomonas aeruginosa and Serratia marcescens (Gram (−) bacterial strains) and Staphylococcus epidermidis are illustrated in FIG. 8."}, "[8]": {"tested_on": "Escherichia coli, Staphylococcus epidermidis, Serratia marcescens, Pseudomonas aeruginosa", "assay": "Marking with association chlorohexidine/N-octyl glucopyranoside", "format": "cell-based", "conditions": "most elevated chlorohexidine concentration (0.001% vs 0.0005%) with NOG; PBS and platelet concentrate", "text": "The results of this experiment showing the marking of DA and the detection of marked bacteria in the presence of a composition of the reaction environment comprising chlorohexidine in association with NOG for increasing the permeabilizing power and the penetration of the marker are illustrated in FIGS. 10A and 10B."}, "Pseudomonas aeruginosa [9]": {"tested_on": "Pseudomonas aeruginosa", "assay": "Marking in the presence of chlorohexidine alone in different environments", "format": "cell-based", "conditions": "bacteria in PBS, platelet concentrate, autologous plasma", "experimental": "Test implementing chlorohexidine only as permeabilizing agent for favoring the penetration of the bacterial marking agent. […] The counting on a Petri dish at 48 hours takes place with the reference method."}, "[10]": {"tested_on": "Staphylococcus epidermidis", "assay": "Marking in the presence of chlorohexidine alone, Gram+", "format": "cell-based", "conditions": "chlorohexidine 0.005%", "experimental": "as §11"}, "[11]": {"tested_on": "Staphylococcus epidermidis", "conditions": "EDTA 5 mM; PBS, distilled water, TSB, plasma", "experimental": "(§12) Prepare a solution of PicoGreen at 1/2000 (molecular probe) in PBS buffer. EDTA 5 mM: 0.093 g disodic EDTA, QSP 50 mL distilled water. Suspension of bacteria prepared in PBS in distilled water in a TSB (tryptone soy broth) environment and in plasma. • Escherichia coli (CIP 105901) • Staphylococcus epidermidis (CIP 68.21) Adjust the preparations to obtain a suspension with 10^3 bacteria/ml. • 1.2 mL of marking solution • +3 mL of bacterial suspension in the various environments • Incubation 15 minutes at 22° C. • +7 mL of EDTA solution • Filtration on char filter 0.4 μm porosity. III Analysis and Results After filtration, the filter is analyzed by cytometry in solid phase and the results are expressed as the number of fluorescent bacteria."}, "Escherichia coli [12]": {"tested_on": "Escherichia coli", "conditions": "EDTA 5 mM; PBS, distilled water, TSB, plasma", "experimental": "as §12"}},
  "data": [
    {"molecule": "nisine", "values": [
      {"measurement": "nisine concentration at which percentage of marked Escherichia coli is maximal", "setting": "Escherichia coli [1]; with EDTA 7.5 mM", "result": 0.1, "unit": "µg/mL"},
      {"measurement": "preferable nisine concentration for marking", "setting": "[2]", "result": "low concentrations are preferable"},
      {"measurement": "marking of the Gram+ on addition of nisine", "setting": "[2]; PicoGreen", "result": "good marking"},
      {"measurement": "nisine concentration giving better detection of the entirety of bacteria tested", "setting": "[3]; associated with EDTA 7.5 mM", "result": 0.2, "unit": "µg/mL"},
      {"measurement": "nisine concentration at which percentage of marked Escherichia coli is maximal", "setting": "Escherichia coli [4]", "result": 0.1, "unit": "µg/mL"}
    ]},
    {"molecule": "CCCCCCCCO[C@@H]1O[C@H](CO)[C@@H](O)[C@H](O)[C@H]1O", "note": "[N octyl glucopyranoside, N-octyl β D-glucopyranoside]", "values": [
      {"measurement": "effect of addition on the marking of Staphylococcus epidermidis", "setting": "[5]", "result": "positive effects"},
      {"measurement": "effect of addition on the marking of Pseudomonas aeruginosa", "setting": "Pseudomonas aeruginosa [6]", "result": "positive effects"}
    ]},
    {"molecule": "CC(=O)O.CC(=O)O.NC(=N\\CCCCCC/N=C(N)/N=C(\\N)Nc1ccc(Cl)cc1)/N=C(\\N)Nc1ccc(Cl)cc1", "note": "[chlorohexidine, Diacetate chlorohexidine]", "values": [
      {"measurement": "optimal concentration for the detection of Gram- bacteria", "setting": "[7]", "result": 0.005, "unit": "%"},
      {"measurement": "marking of the bacteria", "setting": "[8]", "result": "best marking"},
      {"measurement": "effect of plasma on cellular penetration of the marker with chlorohexidine", "setting": "Pseudomonas aeruginosa [9]", "result": "presence of plasma antagonizes the effect"},
      {"measurement": "effect on Gram+ bacteria", "setting": "[10]", "result": "toxic"}
    ]},
    {"molecule": "O=C([O-])CN(CCN(CC(=O)[O-])CC(=O)O)CC(=O)O.[Na+].[Na+]", "note": "[EDTA, disodic EDTA]", "values": [
      {"measurement": "EDTA concentration at which percentage of marked Escherichia coli is maximal", "setting": "Escherichia coli [1]; with nisine 0.1 μg/ml", "result": 7.5, "unit": "mM"},
      {"measurement": "EDTA concentration giving better detection of the entirety of bacteria tested", "setting": "[3]; associated with nisine 0.2 μg/ml", "result": 7.5, "unit": "mM"},
      {"measurement": "marking of Gram+ bacteria with EDTA by itself", "setting": "[11]", "result": "does not permit a correct marking"},
      {"measurement": "marking of Gram- bacteria with EDTA by itself", "setting": "Escherichia coli [12]", "result": "does not permit a correct marking"}
    ]}
  ]
}
